Experimental data published in US12514832B2, “Methods for using low-dose colchicine after myocardial infarction” (INSTITUT DE CARDIOLOGIE DE MONTREAL, priority 2019, dated 2026).

Columns and labels:
[1] = system: patients with stable coronary disease; conditions: LoDoCo, 0.5 mg once daily, 532 patients, not placebo-controlled; cited from earlier work
[2] = COLCOT safety and adverse events (safety population); assay type: in vivo, human
Protocol: All serious adverse events were recorded. The only other adverse events recorded were those that were considered to be related to the gastrointestinal system, events that were judged by the investigator to be related to colchicine or placebo, or laboratory abnormalities that had been judged by the investigator to be clinically significant.

[3] = system: high-sensitivity C-reactive protein; test: COLCOT biomarker substudy: high-sensitivity C-reactive protein; assay type: in vivo, human
Text: Additional prespecified exploratory end points included the change from baseline to 6 months in the high-sensitivity C-reactive protein level and the change from baseline to 12 months in the white-cell count. The C-reactive protein biomarker substudy was implemented after a protocol amendment and was optional for sites and for patients; 34 sites chose to participate in this substudy.
The analysis of the primary end point was repeated in the per-protocol population (i.e., patients without major protocol deviations). Secondary and exploratory end points expressed as time to event were analyzed similarly. The changes from baseline to follow-up were analyzed with the use of an analysis of covariance model with adjustment for baseline value, and estimates of treatment effect are presented with 95% confidence intervals.
High-sensitivity C-reactive protein was measured in a subgroup of only 207 patients at the time of randomization and 6 months later, and the median concentration at trial entry was 4.28 mg per liter. […] The adjusted geometric mean percent changes in the high-sensitivity C-reactive protein level at 6 months after myocardial infarction were −70.0% in the colchicine group and −66.6% in the placebo group, and the placebo-adjusted geometric mean percent change was −10.1% percentage points in the colchicine group (95% CI, −28.6 to 13.4) (Table 8).
In Table 8, the placebo-adjusted geometric mean percent change was obtained by exponentiating the adjusted mean difference between groups from the analysis of covariance model (based on log-transformed data), then subtracting 1 and multiplying by 100.
In addition, the C-reactive protein biomarker sub-study was implemented following a protocol amendment and was optional for sites and for patients; 34 sites accepted to participate in this substudy. There were 213 and 208 patients who provided blood samples at baseline and 6 months, respectively. Paired baseline and 6-month hs-CRP values were available in 207 patients. Clinically available white blood cell counts were obtained from 2598 patients at baseline and 1998 patients at 12 months, and paired baseline and 12-month values were available in 1972 patients. Statistical analysis was conducted on the patients who provided both baseline and follow-up data and as these were exploratory analyses, no missing data was imputed.

COc1cc2c(c(OC)c1OC)-c1ccc(OC)c(=O)cc1[C@@H](NC(C)=O)CC2 [Colchicine, colchicine]
cardiovascular events versus no colchicine (in words) [1]: fewer cardiovascular events than those not receiving colchicine | trial regimen discontinued, percent of patients ([2]; at the end of the trial): 18.4% | incidence of septic shock (in words) ([2]; colchicine vs placebo): did not increase the incidence of septic shock | Cancers, excluding nonmelanoma skin cancers, number of patients ([2]; safety population): 42 | Cancers, excluding nonmelanoma skin cancers, percent ([2]; safety population): 1.8% | Anemia, number of patients ([2]; safety population, N=2330): 14 | Anemia, percent ([2]; safety population, N=2330): 0.6% | Any related adverse event, number of patients ([2]; safety population, N=2330): 372 | Any related adverse event, percent ([2]; safety population, N=2330): 16.0% | Any serious adverse event, number of patients ([2]; safety population, N=2330): 383 | Any serious adverse event, percent ([2]; safety population, N=2330): 16.4% | Cancer, number of patients ([2]; safety population, N=2330): 43 | Cancer, percent ([2]; safety population, N=2330): 1.8% | Diarrhea adverse event, number of patients ([2]; safety population, N=2330): 225 | Diarrhea adverse event, percent ([2]; safety population, N=2330): 9.7% | Flatulence adverse event, number of patients ([2]; safety population, N=2330): 15 | Flatulence adverse event, percent ([2]; safety population, N=2330): 0.6% | Gastrointestinal adverse event, number of patients ([2]; safety population, N=2330): 408 | Gastrointestinal adverse event, percent ([2]; safety population, N=2330): 17.5% | Gastrointestinal hemorrhage, number of patients ([2]; safety population, N=2330): 7 | Gastrointestinal hemorrhage, percent ([2]; safety population, N=2330): 0.3% | Gastrointestinal serious adverse event, number of patients ([2]; safety population, N=2330): 46 | Gastrointestinal serious adverse event, percent ([2]; safety population, N=2330): 2.0% | Hospitalization for heart failure, number of patients ([2]; safety population, N=2330): 25 | Hospitalization for heart failure, percent ([2]; safety population, N=2330): 1.1% | Infection serious adverse event, number of patients ([2]; safety population, N=2330): 51 | Infection serious adverse event, percent ([2]; safety population, N=2330): 2.2% | Leukopenia, number of patients ([2]; safety population, N=2330): 2 | Leukopenia, percent ([2]; safety population, N=2330): 0.1% | Nausea adverse event, number of patients ([2]; safety population, N=2330): 43 | Nausea adverse event, percent ([2]; safety population, N=2330): 1.8% | Pneumonia serious adverse event, number of patients ([2]; safety population, N=2330): 21 | Pneumonia serious adverse event, percent ([2]; safety population, N=2330): 0.9% | Septic shock serious adverse event, number of patients ([2]; safety population, N=2330): 2 | Septic shock serious adverse event, percent ([2]; safety population, N=2330): 0.1% | Thrombocytopenia, number of patients ([2]; safety population, N=2330): 3 | Thrombocytopenia, percent ([2]; safety population, N=2330): 0.1% | serious adverse event of myopathy ([2]; statins used in 99% of trial participants): no serious adverse event of myopathy linked to colchicine occurred | Hs-C reactive protein, geometric mean ([3]; at 6 months, N=99): 1.37 mg/L | Hs-C reactive protein, geometric mean ([3]; at Randomization (baseline), N=99): 4.27 mg/L | Hs-C reactive protein, Adjusted GM percent change ([3]; baseline to 6 months, N=99): −70.0% | Hs-C reactive protein, Placebo-adjusted GM percent change ([3]; baseline to 6 months, colchicine vs placebo): −10.1% | reduction in the C-reactive protein level ([3]; over the first 6 months after myocardial infarction, in both trial groups, difference between groups not significant): > 65%
